Values joined by “and” are separate entries in the source; they are usually repeats but may differ in a detail not shown here. Equal entries are not always repeated.
Test system: BDF1 mice, Adenocarcinoma 755 s.c., tumor weight T/C
Experiment: NCI In Vivo Anticancer Drug Screen. Data for tumor model Adenocarcinoma 755 (subcutaneous) in B6D2F1 (BDF1) mice
Settings: endpoint: mean tumor weight, higher = larger tumour
Procedure: The antitumor activity of compounds was measured in mice bearing transplantable tumors. Survival or tumor size were measured and the results are expressed as the measurement made in the treated group (T) divided by the measurement made in the vehicle treated control group (C). The tumor model used in this assay is Adenocarcinoma 755 (subcutaneous) in B6D2F1 (BDF1) mice

[1] = dose: 25.0 mg/kg/injection, schedule: Q01DX011 (ip), vehicle: carboxymethylcellulose (CMC)

## COB1OB(OC)OB(OC)O1
dose: 18.75 mg/kg/injection, schedule: Q01DX011 (ip), vehicle: water
  T/C: 78 % of control
dose: 250.0 mg/kg/injection, schedule: Q#A X022 (oral), vehicle: water
  T/C: 64 % of control
dose: 335.0 mg/kg/injection, schedule: Q01DX011 (ip), vehicle: other
  T/C: 51 % of control
dose: 375.0 mg/kg/injection, schedule: Q01DX011 (im), vehicle: other
  T/C: 59 % of control
dose: 375.0 mg/kg/injection, schedule: Q01DX011 (ip), vehicle: other
  T/C: 75 % of control
dose: 375.0 mg/kg/injection, schedule: Q01DX011 (ip), vehicle: water
  T/C: 61 % of control
dose: 375.0 mg/kg/injection, schedule: Q01DX011 (sc), vehicle: other
  T/C: 81 % of control
dose: 450.0 mg/kg/injection, schedule: Q#A X022 (sc), vehicle: other
  T/C: 40 % of control
dose: 500.0 mg/kg/injection, schedule: Q01DX011 (ip), vehicle: other
  T/C: 41 % of control and 51 % of control
dose: 500.0 mg/kg/injection, schedule: Q01DX011 (oral), vehicle: other
  T/C: 97 % of control and 75 % of control
dose: 500.0 mg/kg/injection, schedule: Q#A X022 (oral), vehicle: water
  T/C: 43 % of control
dose: 600.0 mg/kg/injection, schedule: Q01DX011 (oral), vehicle: other
  T/C: 53 % of control
dose: 600.0 mg/kg/injection, schedule: Q## X012 (oral), vehicle: other
  T/C: 109 % of control
dose: 600.0 mg/kg/injection, schedule: Q#A X022 (im), vehicle: other
  T/C: 28 % of control
dose: 600.0 mg/kg/injection, schedule: Q#A X022 (sc), vehicle: other
  T/C: 74 % of control
dose: 750.0 mg/kg/injection, schedule: Q01DX011 (im), vehicle: other
  T/C: 65 % of control and 74 % of control
dose: 750.0 mg/kg/injection, schedule: Q01DX011 (ip), vehicle: other
  T/C: 43 % of control and 47 % of control and 55 % of control
dose: 750.0 mg/kg/injection, schedule: Q01DX011 (ip), vehicle: water
  T/C: 20 % of control
dose: 750.0 mg/kg/injection, schedule: Q01DX011 (oral), vehicle: other
  T/C: 71 % of control
dose: 750.0 mg/kg/injection, schedule: Q02DX006 (ip), vehicle: other
  T/C: 71 % of control
dose: 750.0 mg/kg/injection, schedule: Q## X006 (ip), vehicle: other
  T/C: 78 % of control
dose: 750.0 mg/kg/injection, schedule: Q#A X022 (oral), vehicle: water
  T/C: 7 % of control and 21 % of control
dose: 750.0 mg/kg/injection, schedule: Q#A X022 (sc), vehicle: other
  T/C: 43 % of control
dose: 800.0 mg/kg/injection, schedule: Q01DX011 (im), vehicle: other
  T/C: 77 % of control
dose: 800.0 mg/kg/injection, schedule: Q#A X022 (im), vehicle: other
  T/C: 50 % of control
dose: 1000.0 mg/kg/injection, schedule: Q01DX011 (im), vehicle: other
  T/C: 48 % of control and 56 % of control
dose: 1000.0 mg/kg/injection, schedule: Q01DX011 (ip), vehicle: other
  T/C: 14 % of control and 37 % of control
dose: 1000.0 mg/kg/injection, schedule: Q01DX011 (oral), vehicle: saline
  T/C: 47 % of control
dose: 1000.0 mg/kg/injection, schedule: Q01DX011 (oral), vehicle: water
  T/C: 37 % of control
dose: 1000.0 mg/kg/injection, schedule: Q02DX006 (ip), vehicle: other
  T/C: 45 % of control
dose: 1000.0 mg/kg/injection, schedule: Q## X006 (ip), vehicle: other
  T/C: 63 % of control
dose: 1000.0 mg/kg/injection, schedule: Q## X012 (oral), vehicle: other
  T/C: 84 % of control
dose: 1000.0 mg/kg/injection, schedule: Q#A X022 (oral), vehicle: water
  T/C: 8 % of control
dose: 1000.09 mg/kg/injection, schedule: Q01DX011 (oral), vehicle: other
  T/C: 36 % of control
dose: 1125.0 mg/kg/injection, schedule: Q01DX011 (ip), vehicle: other
  T/C: 43 % of control
dose: 1200.0 mg/kg/injection, schedule: Q01DX011 (im), vehicle: other
  T/C: 22 % of control
dose: 1250.0 mg/kg/injection, schedule: Q01DX011 (sc), vehicle: other
  T/C: 38 % of control
dose: 1250.0 mg/kg/injection, schedule: Q#A X022 (oral), vehicle: water
  T/C: 2 % of control and 10 % of control
dose: 1500.0 mg/kg/injection, schedule: Q01DX011 (im), vehicle: other
  T/C: 16 % of control and 30 % of control
dose: 1500.0 mg/kg/injection, schedule: Q01DX011 (ip), vehicle: water
  T/C: 6 % of control
dose: 1500.0 mg/kg/injection, schedule: Q01DX011 (oral), vehicle: saline
  T/C: 16 % of control
dose: 1500.0 mg/kg/injection, schedule: Q01DX011 (oral), vehicle: water
  T/C: 16 % of control
dose: 1500.0 mg/kg/injection, schedule: Q01DX011 (sc), vehicle: other
  T/C: 22 % of control
dose: 1500.0 mg/kg/injection, schedule: Q02DX006 (ip), vehicle: other
  T/C: 37 % of control
dose: 1500.0 mg/kg/injection, schedule: Q## X006 (ip), vehicle: other
  T/C: 58 % of control
dose: 1500.0 mg/kg/injection, schedule: Q## X012 (oral), vehicle: other
  T/C: 51 % of control
dose: 2000.0 mg/kg/injection, schedule: Q01DX011 (oral), vehicle: saline
  T/C: 14 % of control
dose: 2000.0 mg/kg/injection, schedule: Q01DX011 (oral), vehicle: water
  T/C: 7 % of control
dose: 2000.0 mg/kg/injection, schedule: Q## X012 (oral), vehicle: other
  T/C: 15 % of control
dose: 2500.0 mg/kg/injection, schedule: Q01DX011 (oral), vehicle: saline
  T/C: 4 % of control
dose: 2500.0 mg/kg/injection, schedule: Q## X012 (oral), vehicle: other
  T/C: 22 % of control

## CC(=O)[C@H]1[C@H](C)C[C@H]2[C@@H]3CCC4=CC(=O)CC[C@]4(C)[C@@]3(F)[C@@H](O)C[C@@]21C
dose: 5.31 mg/kg/injection, schedule: Q01DX011 (sc), vehicle: steriod suspending solution
  T/C: 108 % of control
dose: 6.0 mg/kg/injection, schedule: Q01DX011 (sc), vehicle: steriod suspending solution
  T/C: 62 % of control
dose: 10.62 mg/kg/injection, schedule: Q01DX011 (sc), vehicle: steriod suspending solution
  T/C: 85 % of control
dose: 12.0 mg/kg/injection, schedule: Q01DX011 (sc), vehicle: steriod suspending solution
  T/C: 27 % of control
dose: 21.25 mg/kg/injection, schedule: Q01DX011 (sc), vehicle: steriod suspending solution
  T/C: 86 % of control
dose: 25.0 mg/kg/injection, schedule: Q01DX011 (sc), vehicle: steriod suspending solution
  T/C: 23 % of control
dose: 42.5 mg/kg/injection, schedule: Q01DX011 (sc), vehicle: steriod suspending solution
  T/C: 39 % of control and 48 % of control
dose: 50.0 mg/kg/injection, schedule: Q01DX011 (sc), vehicle: steriod suspending solution
  T/C: 16 % of control
dose: 85.0 mg/kg/injection, schedule: Q01DX011 (sc), vehicle: steriod suspending solution
  T/C: 17 % of control
dose: 100.0 mg/kg/injection, schedule: Q01DX011 (sc), vehicle: steriod suspending solution
  T/C: 12 % of control
dose: 170.0 mg/kg/injection, schedule: Q01DX011 (sc), vehicle: steriod suspending solution
  T/C: 18 % of control
dose: 340.0 mg/kg/injection, schedule: Q01DX011 (sc), vehicle: steriod suspending solution
  T/C: 18 % of control and 23 % of control
dose: 680.0 mg/kg/injection, schedule: Q01DX011 (sc), vehicle: steriod suspending solution
  T/C: 8 % of control and 26 % of control
dose: 1360.0 mg/kg/injection, schedule: Q01DX011 (sc), vehicle: steriod suspending solution
  T/C: 4 % of control

## CSc1nc(N)c(NC=O)c(=O)n1C
dose: 25.0 mg/kg/injection, schedule: Q01DX011 (ip), vehicle: saline
  T/C: 118 % of control
dose: 75.0 mg/kg/injection, schedule: Q01DX011 (ip), vehicle: saline
  T/C: 66 % of control

## CC(C)Cn1cnc2c(SCCc3ccccc3)nc(N)nc21
dose: 75.0 mg/kg/injection, schedule: Q01DX011 (ip), vehicle: methylcellulose (MC)
  T/C: 52 % of control
dose: 150.0 mg/kg/injection, schedule: Q01DX011 (ip), vehicle: methylcellulose (MC)
  T/C: 34 % of control
dose: 300.0 mg/kg/injection, schedule: Q01DX011 (ip), vehicle: methylcellulose (MC)
  T/C: 3 % of control

## Nc1nc(N)c(N)c(N)n1
dose: 50.0 mg/kg/injection, schedule: Q01DX011 (ip), vehicle: saline
  T/C: 82 % of control
dose: 200.0 mg/kg/injection, schedule: Q01DX011 (ip), vehicle: saline
  T/C: 92 % of control
dose: 400.0 mg/kg/injection, schedule: Q01DX011 (ip), vehicle: saline
  T/C: 90 % of control

## O=c1[nH]c2nc(Cl)nc(Cl)c2[nH]1
[1]
  T/C: 54 % of control
dose: 75.0 mg/kg/injection, schedule: Q01DX011 (ip), vehicle: carboxymethylcellulose (CMC)
  T/C: 117 % of control
dose: 225.0 mg/kg/injection, schedule: Q01DX011 (ip), vehicle: carboxymethylcellulose (CMC)
  T/C: 92 % of control

## CCCCn1cnc2c(SC3CCCC3)ncnc21
[1]
  T/C: 38 % of control
dose: 50.0 mg/kg/injection, schedule: Q01DX011 (ip), vehicle: carboxymethylcellulose (CMC)
  T/C: 13 % of control
dose: 100.0 mg/kg/injection, schedule: Q01DX011 (ip), vehicle: carboxymethylcellulose (CMC)
  T/C: 4 % of control
dose: 200.0 mg/kg/injection, schedule: Q01DX011 (ip), vehicle: carboxymethylcellulose (CMC)
  T/C: 3 % of control
